Measurements: ChEMBL document CHEMBL4184110 (Bioorg Med Chem Lett, 2018)
≈ marks a conversion by molar mass, not a printed value.

Assays:
[1] = biological target: T1, Retinoic acid receptor RXR-alpha (Homo sapiens, UniProt P19793); test: Antagonist activity at CMV-fused RXRalpha-LBD-GAL4-DBD (unknown origin) expressed in HEK293T cells assessed as inhibition of bexarotene-induced receptor transactivation after 16 hrs by bright-Glo luciferase reporter gene assay; type: cell-based
T1 sequence (P19793 whole entry): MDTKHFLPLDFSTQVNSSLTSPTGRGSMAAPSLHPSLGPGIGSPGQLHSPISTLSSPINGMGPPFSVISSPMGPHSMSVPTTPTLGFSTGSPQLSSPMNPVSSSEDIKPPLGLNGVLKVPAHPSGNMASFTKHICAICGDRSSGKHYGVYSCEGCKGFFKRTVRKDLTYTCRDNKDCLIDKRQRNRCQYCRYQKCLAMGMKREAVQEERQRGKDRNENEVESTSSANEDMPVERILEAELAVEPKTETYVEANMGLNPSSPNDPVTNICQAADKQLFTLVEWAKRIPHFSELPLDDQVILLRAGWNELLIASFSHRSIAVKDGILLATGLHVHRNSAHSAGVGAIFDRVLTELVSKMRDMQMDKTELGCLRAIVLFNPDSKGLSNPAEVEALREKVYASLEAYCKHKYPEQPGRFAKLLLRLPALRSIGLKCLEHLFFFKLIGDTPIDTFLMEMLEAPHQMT

[2] = biological target: T2, Vitamin D3 receptor (Homo sapiens, UniProt P11473); test: Antagonist activity at CMV-fused VDR (unknown origin) expressed in HEK293T cells assessed as reduction in 24-hydroxylase promoter mediated transcriptional activity by luciferase reporter gene assay; type: cell-based; conditions: read-out: IC50
T2 sequence (P11473 whole entry): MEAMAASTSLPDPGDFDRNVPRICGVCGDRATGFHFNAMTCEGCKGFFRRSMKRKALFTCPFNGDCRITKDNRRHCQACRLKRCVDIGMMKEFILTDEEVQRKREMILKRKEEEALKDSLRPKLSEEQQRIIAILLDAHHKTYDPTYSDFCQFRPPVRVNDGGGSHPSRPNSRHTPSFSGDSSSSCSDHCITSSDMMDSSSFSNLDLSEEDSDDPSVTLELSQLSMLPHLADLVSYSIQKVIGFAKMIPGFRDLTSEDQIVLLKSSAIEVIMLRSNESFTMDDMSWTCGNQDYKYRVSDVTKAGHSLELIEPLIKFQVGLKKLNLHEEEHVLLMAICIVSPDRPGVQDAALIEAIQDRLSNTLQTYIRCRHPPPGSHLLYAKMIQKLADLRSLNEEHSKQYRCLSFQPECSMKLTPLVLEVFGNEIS

[3] = Aqueous solubility of the compound in DMSO at 500 uM by filter based assay; type: physicochemical
[4] = biological target: T2, Vitamin D3 receptor; test: Antagonist activity at VDR-LBD (unknown origin) assessed as inhibition of LG190178-induced recruitment of alexa fluor 647-labeled SRC2-3 after 30 mins by fluorescence polarization assay
[5] = biological target: T3, Luciferin 4-monooxygenase (Photuris pensylvanica, UniProt Q27757); test: Inhibition of Photuris pennsylvanica luciferase after 45 mins by CellTiter-Glo based luminescence assay; conditions: 0.75 h
T3 sequence (Q27757 whole entry): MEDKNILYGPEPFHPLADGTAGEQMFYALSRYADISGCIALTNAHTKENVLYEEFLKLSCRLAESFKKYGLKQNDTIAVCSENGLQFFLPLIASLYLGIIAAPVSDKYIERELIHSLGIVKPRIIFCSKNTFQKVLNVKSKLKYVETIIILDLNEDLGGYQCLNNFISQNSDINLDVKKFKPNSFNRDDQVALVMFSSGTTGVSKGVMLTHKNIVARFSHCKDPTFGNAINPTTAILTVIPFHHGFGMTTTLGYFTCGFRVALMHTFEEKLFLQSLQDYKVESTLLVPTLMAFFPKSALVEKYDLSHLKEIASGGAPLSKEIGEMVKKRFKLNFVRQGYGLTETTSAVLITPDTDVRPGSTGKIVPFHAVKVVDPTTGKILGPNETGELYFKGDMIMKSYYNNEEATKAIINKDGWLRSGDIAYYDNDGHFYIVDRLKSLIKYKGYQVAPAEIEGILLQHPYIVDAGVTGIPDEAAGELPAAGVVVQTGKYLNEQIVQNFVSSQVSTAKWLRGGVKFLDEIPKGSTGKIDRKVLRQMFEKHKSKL

[6] = tested on: HEK-293T; test: Cytotoxicity against HEK293T cells assessed as decrease in cell viability at 100 uM after 18 hrs by Cell Titer-Glo based luminescence assay relative to control; conditions: human
[7] = biological target: T4, Estrogen receptor (Homo sapiens, UniProt P03372); test: Antagonist activity at CMV-fused ERalpha-LBD-GAL4-DBD (unknown origin) expressed in HEK293T cells assessed as inhibition of estradiol-induced receptor transactivation after 16 hrs by bright-Glo luciferase reporter gene assay; type: cell-based
T4 sequence (P03372 whole entry): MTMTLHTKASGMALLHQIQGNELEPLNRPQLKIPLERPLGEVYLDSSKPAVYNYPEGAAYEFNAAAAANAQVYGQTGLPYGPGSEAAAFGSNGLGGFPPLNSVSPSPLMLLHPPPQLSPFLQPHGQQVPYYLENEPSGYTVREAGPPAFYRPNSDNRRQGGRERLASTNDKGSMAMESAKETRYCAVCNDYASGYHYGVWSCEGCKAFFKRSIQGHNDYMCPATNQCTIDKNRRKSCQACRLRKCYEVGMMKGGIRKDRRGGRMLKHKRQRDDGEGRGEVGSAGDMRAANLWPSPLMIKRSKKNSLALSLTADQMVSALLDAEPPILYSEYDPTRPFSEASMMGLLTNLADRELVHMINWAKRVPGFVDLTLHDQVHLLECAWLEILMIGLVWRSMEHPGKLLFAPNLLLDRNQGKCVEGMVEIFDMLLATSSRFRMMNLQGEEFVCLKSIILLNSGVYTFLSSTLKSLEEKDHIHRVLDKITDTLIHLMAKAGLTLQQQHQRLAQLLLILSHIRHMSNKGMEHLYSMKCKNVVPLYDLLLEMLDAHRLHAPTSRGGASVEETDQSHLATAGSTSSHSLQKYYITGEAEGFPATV

[8] = biological target: T5, Thyroid hormone receptor beta (Homo sapiens, UniProt P10828); test: Antagonist activity at CMV-fused TRbeta-LBD-GAL4-DBD (unknown origin) expressed in HEK293T cells assessed as inhibition of T3-induced receptor transactivation after 16 hrs by bright-Glo luciferase reporter gene assay; type: cell-based
T5 sequence (P10828 whole entry): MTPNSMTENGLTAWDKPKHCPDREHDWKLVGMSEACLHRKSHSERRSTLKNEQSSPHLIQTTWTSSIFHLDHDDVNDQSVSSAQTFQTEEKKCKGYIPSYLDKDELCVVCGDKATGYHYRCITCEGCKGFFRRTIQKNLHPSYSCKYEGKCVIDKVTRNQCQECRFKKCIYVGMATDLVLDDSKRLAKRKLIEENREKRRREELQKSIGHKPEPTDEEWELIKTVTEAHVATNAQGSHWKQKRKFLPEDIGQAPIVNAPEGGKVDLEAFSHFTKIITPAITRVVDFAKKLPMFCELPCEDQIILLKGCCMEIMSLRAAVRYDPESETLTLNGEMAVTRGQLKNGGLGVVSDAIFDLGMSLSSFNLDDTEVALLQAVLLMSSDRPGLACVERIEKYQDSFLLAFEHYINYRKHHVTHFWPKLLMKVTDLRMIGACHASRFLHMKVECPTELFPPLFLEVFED

IC50 [1] | IC50 [2] | solubility kinetic at 500 µM [3] | IC50 [4] | inhibition (INH) [5] | IC50 [7] | IC50 [8] | SMILES | Activity [6]
4.6 µM | 5.67 µM | 18.5 µM (≈ 6.54 µg/mL) | Not Active | Not Active | 4.7 µM | 8.8 µM | COC(=O)c1ccc(OCc2oc(-c3cccc(OC)c3)nc2C)cc1 | 35.6%
2 µM | 0.66 µM | 45.3 µM (≈ 16.6 µg/mL) | Not Active | Not Active | 1.7 µM | 0.97 µM | COC(=O)Cc1ccc(OCc2oc(-c3cccc(OC)c3)nc2C)cc1 | 63.4%
4.4 µM | 3.82 µM | 61.6 µM (≈ 22.6 µg/mL) | Not Active |  | 4.1 µM | 7.6 µM | COC(=O)Cc1ccc(OCc2oc(-c3ccccc3OC)nc2C)cc1 | 31.2%
11.1 µM | 2.5 µM | 44.1 µM (≈ 15.6 µg/mL) | Not Active |  | 5.2 µM | 9.8 µM | COC(=O)c1cccc(OCc2oc(-c3ccccc3OC)nc2C)c1 | 39.5%
